Source: paper PMC10387993, “New pyrimidine-N-β-D-glucosides: synthesis, biological evaluation, and molecular docking investigations” (Turkish Journal of Chemistry, 2023)
In brackets after ≈: the same amount, converted by molar mass. Where two headings read alike, the source gives them in different places.

How the values were obtained:
Assay type in all cases: cell-based
[1] = test system: E. faecalis VRE ATCC 19433; assay: Microdilution MIC assay; conditions: Enterococcus faecalis; E. faecalis VRE ATCC 19433, 24 h at 35 °C
Protocol: (§1) MIC values of the compounds against bacterial strains were determined on the basis of a microwell dilution method. […] […]. Growth of microorganisms was determined visually after incubation for 24 h at 35 °C. The lowest concentration at which there was no visible growth (turbidity) was taken as the MIC.

E. coli ATCC 25922 = assay: Microdilution MIC assay; conditions: Escherichia coli, ATCC25922; E. coli ATCC 25922, 24 h at 35 °C
Protocol: as §1

[2] = test system: S. aureus MSSA ATCC 29213; assay: Microdilution MIC assay; conditions: S. aureus MSSA ATCC 29213, 24 h at 35 °C
Protocol: as §1

E. coli ESBL ATCC 35218 = assay: Microdilution MIC assay; conditions: Escherichia coli, ATCC35218; E. coli ESBL ATCC 35218, 24 h at 35 °C
Protocol: as §1

E. faecalis ATCC 29212 = assay: Microdilution MIC assay; conditions: Enterococcus faecalis, ATCC29212, 24 h, E. faecalis ATCC 29212, 24 h at 35 °C; read-out: MIC
Protocol: as §1

S. mutans ATCC 35668 = assay: Microdilution MIC assay; conditions: S. mutans ATCC 35668, 24 h at 35 °C
Protocol: as §1

S. gordonii NCTC 7870 = assay: Microdilution MIC assay; conditions: Streptococcus gordonii, NCTC7870; S. gordonii NCTC 7870, 24 h at 35 °C
Protocol: as §1

[3] = test system: S. aureus MRSA ATCC 46300; assay: Microdilution MIC assay; conditions: Staphylococcus aureus; S. aureus MRSA ATCC 46300, 24 h at 35 °C; read-out: MIC
Protocol: as §1

[4] = test system: A. actinomycetemcomitans ATCC 33384; assay: Microdilution MIC assay; conditions: Aggregatibacter actinomycetemcomitans, ATCC33384; A. actinomycetemcomitans ATCC 33384, 24 h at 35 °C
Protocol: as §1

[5] = test system: P. aeruginosa AGME ATCC 27853; assay: Microdilution MIC assay; conditions: Pseudomonas aeruginosa, ATCC27853; P. aeruginosa AGME ATCC 27853, 24 h at 35 °C
Protocol: as §1

[6] = LDH cytotoxic activity assay, HeLa; conditions: human, HeLa cells
Protocol: (§2) The cell lines were cultured in a cell medium (Dulbecco’s modified eagle’s or RPMI 1640) enriched with 10% (v/v) fetal bovine serum and 2% (v/v) Penicillin-Streptomycin (10,000 U/mL). First, old medium was removed out of the flask when the cells reached approximately 80% confluence. Next, cells were taken from the flasks surface using trypsin-EDTA solution and then subjected to centrifugation. Following, the cell pellet was suspended with fresh media and was inoculated into wells.
(§3) Approximately 5 × 10^3 cells in 100 μL were placed into 96-well plates as triplicates and treated with 25, 50, 75, and 100 μg/mL concentrations of test compounds at 37 °C with 5% CO2 for 24 h. LDH activity was obtained by determining absorbance at 492–630 nm using a microplate reader.

[7] = LDH cytotoxic activity assay, HT29; conditions: human, HT29 cells; for cytotoxicity at 24 h, 25 μg/mL: HT29, 25 μg/mL; for cytotoxicity at 24 h, 50 μg/mL: HT29, 50 μg/mL; for cytotoxicity at 24 h, 75 μg/mL: HT29, 75 μg/mL; for cytotoxicity at 24 h, 100 μg/mL: HT29, 100 μg/mL
Protocol: as §2, §3

in vitro = conditions: human, LC50
Protocol: as §2
(§4) A cell suspension containing approximately 1 × 10^4 cells in 100 μL was seeded into the wells of 96-well culture plates. […]. The final volume of the wells was set to 200 μL by medium. Cell proliferation assay was evaluated by MTT (yellow tetrazolium MTT (3-(4,5-dimethylthiazolyl-2)-2,5-diphenyltetrazolium bromide) methods. Briefly, an MTT stock solution (5 mg of MTT/mL of distilled water) was filtered and kept at −20 °C until use. The cells were exposed to an MTT reagent (consisting of one parts of MTT stock solutions and nine parts of fresh RPMI 1640 without phenol red) for 4 h to form MTT formazan dye followed by the dye dissolved in DMSO with Sorenson’s buffer for 30 min at room temperature and then the plate was measured at 560 nm, with 690 nm as a reference interval, using a microplate reader. Each experiment was repeated at least three times for each cell line.
(§5) IC50 value is a concentration that inhibits half of the cells in vitro. The half maximal inhibitory concentration (IC50) of the test and control compounds was calculated using XLfit5 or excel spreadsheet and represent in μM at 95% confidence intervals. The proliferation assay results were expressed as the percent inhibition according to the following formula: % Inhibition = [1 - (Absorbance of Treatments /Absorbance of DMSO) × 100]. Three dose response parameters (GI50, TGI, LC50) were calculated according to the following formulas using the absorbance measurements of time zero (Tz), control growth (C), and test growth in the presence of drug (Ti). Growth inhibition of 50% (GI50) was calculated from [(Ti-Tz)/(C-Tz)] × 100 = 50, which is the drug concentration resulting in a 50% reduction in the net growth increase in control cells during the drug incubation. The drug concentration resulting in total growth inhibition (TGI) was calculated from Ti = Tz. The LC50 indicating a net loss of cells following treatment was calculated from [(Ti-Tz)/Tz] × 100 = −50.

normal FL cells = assay: cells; conditions: for GI50 / IC50 / IC (total growth inhibition): FL normal cells, MTT; for IC50: read-out: IC50; for IC (total growth inhibition): read-out: TGI
Protocol: as §2, §4, §5

[8] = LDH cytotoxic activity assay, C6; conditions: rat, C6 glioma cells; for cytotoxicity at 24 h, 25 μg/mL: C6, 25 μg/mL; for cytotoxicity at 24 h, 50 μg/mL: C6, 50 μg/mL; for cytotoxicity at 24 h, 75 μg/mL: C6, 75 μg/mL; for cytotoxicity at 24 h, 100 μg/mL: C6, 100 μg/mL
Protocol: as §2, §3

MCF7 = assay: cells; conditions: Homo sapiens; for LC50 (concentration causing 50% net cell loss relative to time zero): MCF7, read-out: LC50; for GI50 / IC50 / IC (total growth inhibition): MCF7, MTT; for IC50: read-out: IC50; for IC (total growth inhibition): read-out: TGI
Protocol: as §2, §4, §5

S. aureus ATCC 25923 = assay: Microdilution MIC assay; conditions: Staphylococcus aureus, ATCC25923, 24 h, S. aureus ATCC 25923, 24 h at 35 °C; read-out: MIC
Protocol: as §1

[9] = Staphylococcus aureus, 24 h, read-out: MIC
[10] = Streptococcus mutans, ATCC35668, 24 h, read-out: MIC

Row | Compound | MIC [1] | MIC (E. coli ATCC 25922) | MIC [2, 9] | MIC (E. coli ESBL ATCC 35218) | MIC (S. mutans ATCC 35668; [10]) | MIC (S. gordonii NCTC 7870) | MIC [3] | MIC [4] | MIC [5] | cytotoxicity at 24 h, 25 μg/mL [6] | cytotoxicity at 24 h, 50 μg/mL [6] | cytotoxicity at 24 h, 75 μg/mL [6] | cytotoxicity at 24 h, 100 μg/mL [6] | cytotoxicity at 24 h, 25 μg/mL [7] | cytotoxicity at 24 h, 50 μg/mL [7] | cytotoxicity at 24 h, 75 μg/mL [7] | cytotoxicity at 24 h, 100 μg/mL [7] | LC50 (concentration causing 50% net cell loss) (in vitro) | GI50 (normal FL cells) | IC50 (normal FL cells) | also measured
1 | Cc1ccccc1-c1cc(-c2cccnc2)nc(N[C@@H]2O[C@H](CO)[C@@H](O)[C@H](O)[C@H]2O)n1 [Compound 2, N-[4-(2-methylphenyl)-6-pyridin-3-ylpyrimidin-2-yl]-β-D-glucopyranosylamine] | > 1000 µg/mL | > 1000 µg/mL | 62.5 to 125 µg/mL (≈ 147 to 294 µM) | > 1000 µg/mL | 1000 µg/mL (≈ 2360 µM) | 500 µg/mL (≈ 1180 µM) | 125 µg/mL (≈ 294 µM) | 250 µg/mL (≈ 589 µM) | > 1000 µg/mL | 30.5% | 47.2% | 49.7% | 72.1% | 27.7% | 44.8% | 72.7% | 94.6% | > 500 µg/mL | 3.68 µg/mL (≈ 8.67 µM) | 457 µg/mL (≈ 1080 µM) | MIC [2]: 125 µg/mL (≈ 294 µM); MIC (E. faecalis ATCC 29212): > 1000 µg/mL; IC (total growth inhibition) (normal FL cells): > 500 µg/mL; cytotoxicity at 24 h, 25 μg/mL [8]: 30.8%; cytotoxicity at 24 h, 50 μg/mL [8]: 49.8%; cytotoxicity at 24 h, 75 μg/mL [8]: 72.7%; cytotoxicity at 24 h, 100 μg/mL [8]: 99.8%; LC50 (concentration causing 50% net cell loss relative to time zero) (MCF7): > 500 µg/mL; GI50 (MCF7): 1.69 µg/mL (≈ 3.98 µM); IC50 (MCF7): > 500 µg/mL; IC (total growth inhibition) (MCF7): > 500 µg/mL
2 | Cc1cccc(-c2cc(-c3cccnc3)nc(N[C@@H]3O[C@H](CO)[C@@H](O)[C@H](O)[C@H]3O)n2)c1 [Compound 5, N-[4-(3-methylphenyl)-6-pyridin-3-ylpyrimidin-2-yl]-β-D-glucopyranosylamine] | > 1000 µg/mL | > 1000 µg/mL | 62.5 to 125 µg/mL (≈ 147 to 294 µM) | > 1000 µg/mL | 500 µg/mL (≈ 1180 µM) | 125 µg/mL (≈ 294 µM) | 250 µg/mL (≈ 589 µM) | 250 µg/mL (≈ 589 µM) | > 1000 µg/mL | 19.8% | 35.3% | 40.3% | 54.3% | 24.6% | 39.4% | 75.9% | 96.8% | > 500 µg/mL | 4.16 µg/mL (≈ 9.8 µM) | 25.3 µg/mL (≈ 59.7 µM) | MIC [2]: 125 µg/mL (≈ 294 µM); MIC (E. faecalis ATCC 29212): > 1000 µg/mL; IC (total growth inhibition) (normal FL cells): 25.8 µg/mL; cytotoxicity at 24 h, 25 μg/mL [8]: 26.9%; cytotoxicity at 24 h, 50 μg/mL [8]: 44.1%; cytotoxicity at 24 h, 75 μg/mL [8]: 62.6%; cytotoxicity at 24 h, 100 μg/mL [8]: 87.1%; LC50 (concentration causing 50% net cell loss relative to time zero) (MCF7): > 500 µg/mL; GI50 (MCF7): 2.53 µg/mL (≈ 5.96 µM); IC50 (MCF7): 66.8 µg/mL (≈ 157 µM); IC (total growth inhibition) (MCF7): 75.7 µg/mL
3 | CC(=O)OC[C@H]1O[C@@H](Nc2nc(-c3ccncc3)cc(-c3ccc(C)cc3)n2)[C@H](OC(C)=O)[C@@H](OC(C)=O)[C@@H]1OC(C)=O [Compound 18, 2,3,4,6-tetra-O-acetyl-N-[4-(4-methylphenyl)-6-pyridin-4-ylpyrimidin-2-yl]-β-D-glucopyranosylamine] | 1000 µg/mL (≈ 1690 µM) | > 1000 µg/mL | 1000 µg/mL (≈ 1690 µM) | > 1000 µg/mL | 62.5 to 125 µg/mL (≈ 105 to 211 µM) | > 1000 µg/mL | 500 µg/mL (≈ 844 µM) | > 1000 µg/mL | > 1000 µg/mL | 14.2% | 39% | 46.1% | 54.2% | 27.9% | 45.5% | 58.1% | 82.8% | > 500 µg/mL | 2.01 µg/mL (≈ 3.39 µM) | 7.46 µg/mL (≈ 12.6 µM) | MIC (S. aureus ATCC 25923): 500 µg/mL (≈ 844 µM); MIC (S. mutans ATCC 35668): 125 µg/mL (≈ 211 µM); IC (total growth inhibition) (normal FL cells): 7.58 µg/mL; LC50 (normal FL cells; human): 352.27 µg/mL (≈ 594 µM); cytotoxicity at 24 h, 25 μg/mL [8]: 27.2%; cytotoxicity at 24 h, 50 μg/mL [8]: 44.1%; cytotoxicity at 24 h, 75 μg/mL [8]: 75.2%; cytotoxicity at 24 h, 100 μg/mL [8]: 86.5%; LC50 (concentration causing 50% net cell loss relative to time zero) (MCF7): > 500 µg/mL; GI50 (MCF7): 1.79 µg/mL (≈ 3.02 µM); IC50 (MCF7): > 500 µg/mL; IC (total growth inhibition) (MCF7): > 500 µg/mL
